Where a name gives a salt, the structure may show the parent alone.
Row | melting point | Compound
1 | 193 °C | O=C(Nc1cccc2c1C(=O)c1c-2n[nH]c1-c1ccc(N2CCNCC2)cc1)NN1CCC[C@@H]1CO (as salt: TFA) [Example CCXXXIII, 3-(4-piperazinophenyl)-5-((2(R)-(hydroxymethyl)pyrrolidino)carbamoylamino)indeno[1,2-c]pyrazol-4-one]
2 | 241 °C | O=C(Nc1cccc2c1C(=O)c1c-2n[nH]c1-c1ccc(C(=O)N2CCNCC2)s1)NN1CCOCC1 (as salt: TFA) [Example CXLIX, 3-(5-piperazinocarbonyl-2-thienyl)-5-(morpholinocarbamoylamino)indeno [1,2-c]pyrazol-4-one]
3 | > 300 °C | NC1CCCC(NC(=O)c2ccc(-c3[nH]nc4c3C(=O)c3c(NC(=O)NN5CCOCC5)cccc3-4)s2)C1 (stereo not drawn) (as salt: TFA) [Example CLXX, 3-(5-((3-aminocyclohexyl)aminocarbonyl)-2-thienyl)-5-(morpholinocarbamoylamino)indeno[1,2-c]pyrazol-4-one]
4 | 259 °C | O=C(CN1CCOCC1)Nc1cccc2c1C(=O)c1c-2n[nH]c1-c1ccc(N2CCNCC2)cc1 (as salt: TFA) [Example CCXV, 3-(4-piperazinophenyl)-5-(morpholinoacetamido)indeno[1,2-c]pyrazol-4-one]
5 | > 300 °C | COc1ccc(-c2[nH]nc3c2C(=O)c2c(NC(N)=O)cccc2-3)cc1 [Example LXIII, 3-(4-methoxyphenyl)-5-(carbamoylamino)indeno[1,2-c]pyrazol-4-one]

The next lines start with the compound.

Row | Compound | melting point
6 | CC(C)(C)OC(=O)NC1CCCC(NC(=O)c2ccc(-c3[nH]nc4c3C(=O)c3c(NC(=O)NN5CCOCC5)cccc3-4)s2)C1 (stereo not drawn) (as salt: TFA) [Example CLXXI, 3-(5-((3-(t-butoxycarbonylamino)cyclohexyl)aminocarbonyl)-2-thienyl)-5-(morpholinocarbamoylamino)indeno[1,2-c]pyrazol-4-one] | > 300 °C
7 | CC(C)(C)OC(=O)N1CCC(C(=O)N2CCC(c3[nH]nc4c3C(=O)c3c(NC(=O)NN5CCOCC5)cccc3-4)CC2)CC1 [Example CCLXXXI, 3-(1-((1-(t-butoxycarbonyl)piperidin-4-yl)carbonyl)piperidin-4-yl)-5-(morpholinocarbamoylamino)indeno[1,2-c]pyrazol-4-one] | 220 °C
8 | CCOC(=O)c1ccc(-c2[nH]nc3c2C(=O)c2c(NC(=O)NN4CCC[C@@H]4COC)cccc2-3)s1 [Example CCI, 3-(5-carboethoxy-2-thienyl)-5-(2 (R)-(methoxymethyl)pyrrolidinocarbamoylamino)indeno[1,2-c]pyrazol-4-one] | 221 °C
9 | CN1CCN(NC(=O)Nc2cccc3c2C(=O)c2c-3n[nH]c2-c2ccc(N3CCNCC3)cc2)CC1 (as salt: TFA) [Example CCXXIII, 3-(4-piperazinophenyl)-5-((4-methylpiperazino)carbamoylamino)indeno[1,2-c]pyrazol-4-one] | 254 °C
